Reference: PubChem BioAssay (NCI)
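All cell lines were grown in 96-well plates and treated with compound for 48 hours. TGI marks complete inhibition of growth.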

How the values were obtained:
Assay in all cases: NCI tumour cell line growth inhibition, 48 h
[1] = system: 786-0 renal
[2] = system: A498 renal
[3] = system: A549 NSCLC
[4] = system: ACHN renal
[5] = system: BT-549 breast
[6] = system: CAKI-1 renal
[7] = system: CCRF-CEM leukemia
[8] = system: COLO 205 colon
[9] = system: DU-145 prostate
[10] = system: EKVX NSCLC
[11] = system: HCC-2998 colon
[12] = system: HCT-116 colon
[13] = system: HCT-15 colon
[14] = system: HL-60(TB) leukemia
[15] = system: HOP-62 NSCLC
[16] = system: HOP-92 NSCLC
[17] = system: HS 578T breast
[18] = system: HT29 colon
[19] = system: IGROV1 ovarian
[20] = system: K-562 leukemia
[21] = system: KM12 colon
[22] = system: LOX IMVI melanoma
[23] = system: M14 melanoma
[24] = system: MALME-3M melanoma
[25] = system: MCF7 breast
[26] = system: MDA-MB-231 breast
[27] = system: MDA-MB-435
[28] = system: MDA-N
[29] = system: MOLT-4 leukemia
[30] = system: NCI-H226 lung
[31] = system: NCI-H23 lung
[32] = system: NCI-H460 lung
[33] = system: NCI-H522 lung
[34] = system: NCI/ADR-RES ovarian
[35] = system: OVCAR-3 ovarian
[36] = system: OVCAR-4 ovarian
[37] = system: OVCAR-5 ovarian
[38] = system: OVCAR-8 ovarian
[39] = system: PC-3 prostate
[40] = system: RPMI-8226 leukemia
[41] = system: RXF 393 renal
[42] = system: SF-268 CNS
[43] = system: SF-295 CNS
[44] = system: SF-539 CNS
[45] = system: SK-MEL-2 melanoma
[46] = system: SK-MEL-28 melanoma
[47] = system: SK-MEL-5 melanoma
[48] = system: SK-OV-3 ovarian
[49] = system: SN12C renal
[50] = system: SNB-19 CNS
[51] = system: SR leukemia
[52] = system: SW-620 colon
[53] = system: T-47D breast
[54] = system: TK-10 renal
[55] = system: U251 CNS
[56] = system: UACC-257 melanoma
[57] = system: UACC-62 melanoma
[58] = system: UO-31 renal
[59] = system: SNB-75 CNS

Work on `COc1ccc(/C=C2\CN(C)CC3=C2OC(N)=C(C#N)C3c2ccc(OC)cc2)cc1` (stereo not given) yielded a TGI [1] greater than 100 µM, a TGI [2] greater than 100 µM and a TGI [3] greater than 100 µM. The TGI [4] was greater than 100 µM, the TGI [5] was greater than 100 µM and the TGI [6] was greater than 100 µM. For the same molecule, the TGI [7] was 30.2 µM, the TGI [8] was greater than 100 µM and the TGI [9] was greater than 100 µM. It also gave a TGI [10] greater than 100 µM, a TGI [11] greater than 90.5 µM and a TGI [12] greater than 100 µM. The TGI [13] was greater than 100 µM, the TGI [14] was greater than 27.6 µM and the TGI [15] was greater than 100 µM. The TGI [16] was 59.3 µM, the TGI [17] was greater than 100 µM and the TGI [18] was greater than 100 µM. It also gave a TGI [19] greater than 95.5 µM, a TGI [20] greater than 100 µM and a TGI [21] greater than 100 µM. For the same molecule, the TGI [22] was greater than 100 µM, the TGI [23] was greater than 100 µM and the TGI [24] was 58.1 µM. It also gave a TGI [25] greater than 100 µM, a TGI [26] greater than 100 µM and a TGI [27] greater than 71.2 µM. The TGI [28] was greater than 100 µM, the TGI [29] was greater than 49 µM and the TGI [30] was greater than 100 µM. It also gave a TGI [31] greater than 100 µM, a TGI [32] greater than 100 µM and a TGI [33] greater than 83.1 µM. The TGI [34] was greater than 100 µM, the TGI [35] was greater than 93.1 µM and the TGI [36] was greater than 100 µM. It also gave a TGI [37] greater than 100 µM, a TGI [38] greater than 100 µM and a TGI [39] greater than 53.1 µM. It also gave a TGI [40] greater than 43.9 µM, a TGI [41] greater than 86.9 µM and a TGI [42] greater than 100 µM. The TGI [43] was greater than 100 µM, the TGI [44] was greater than 100 µM and the TGI [45] was greater than 65.5 µM. The TGI [46] was greater than 100 µM, the TGI [47] was greater than 100 µM and the TGI [48] was greater than 100 µM. For the same molecule, the TGI [49] was greater than 100 µM, the TGI [50] was greater than 100 µM and the TGI [51] was greater than 100 µM. For the same molecule, the TGI [52] was greater than 100 µM, the TGI [53] was greater than 100 µM and the TGI [54] was greater than 100 µM. For the same molecule, the TGI [55] was greater than 100 µM, the TGI [56] was greater than 100 µM and the TGI [57] was greater than 100 µM. It also gave a TGI [58] greater than 100 µM.
Molecule `Oc1cc(Cl)cc2cc(Br)cnc12` has a TGI [1] greater than 100 µM, a TGI [2] greater than 88.7 µM and a TGI [3] greater than 42.6 µM. The TGI [4] was greater than 32.1 µM, the TGI [5] was greater than 100 µM and the TGI [6] was greater than 27.3 µM. The TGI [7] was 9.51 µM, the TGI [8] was greater than 100 µM and the TGI [9] was greater than 100 µM. It also gave a TGI [10] greater than 64.2 µM, a TGI [11] greater than 73.9 µM and a TGI [12] greater than 100 µM. It also gave a TGI [13] greater than 100 µM, a TGI [14] of 1.37 µM and a TGI [15] greater than 55.1 µM. For the same molecule, the TGI [16] was greater than 100 µM, the TGI [17] was greater than 100 µM and the TGI [18] was greater than 100 µM. It also gave a TGI [19] greater than 94.1 µM, a TGI [20] greater than 22.6 µM and a TGI [21] greater than 100 µM. The TGI [23] was 6 µM, the TGI [24] was 21 µM and the TGI [25] was greater than 29.9 µM. For the same molecule, the TGI [26] was greater than 100 µM, the TGI [27] was greater than 100 µM and the TGI [28] was greater than 100 µM. It also gave a TGI [29] of 6.96 µM, a TGI [30] greater than 88.5 µM and a TGI [31] greater than 100 µM. It also gave a TGI [32] greater than 57.7 µM, a TGI [33] greater than 69.9 µM and a TGI [34] greater than 54.5 µM. For the same molecule, the TGI [35] was 7.9 µM, the TGI [36] was greater than 100 µM and the TGI [37] was greater than 100 µM. For the same molecule, the TGI [38] was greater than 26.9 µM, the TGI [39] was greater than 100 µM and the TGI [40] was 47.9 µM. The TGI [41] was 19.2 µM, the TGI [42] was greater than 48.1 µM and the TGI [43] was greater than 45.4 µM. For the same molecule, the TGI [44] was greater than 100 µM, the TGI [46] was greater than 100 µM and the TGI [47] was 3.24 µM. For the same molecule, the TGI [48] was greater than 100 µM, the TGI [49] was greater than 100 µM and the TGI [50] was greater than 100 µM. The TGI [59] was greater than 100 µM, the TGI [51] was greater than 20.1 µM and the TGI [52] was greater than 100 µM. It also gave a TGI [53] greater than 59.6 µM, a TGI [54] greater than 100 µM and a TGI [55] of 98.1 µM. It also gave a TGI [56] greater than 23.9 µM, a TGI [57] greater than 77.6 µM and a TGI [58] greater than 72.1 µM.
